Assays:
β3GlcNAcT = β3GlcNAcT acceptor specificity (relative enzyme activity); assay type: biochemical, N. meningitidis; details: substance used as acceptor substrate; Galβ(1-4)Glc = 100
Description: The inventors have previously cloned and characterized the bacterial N. meningitidis enzymes β4GalT-GalE and β3GlcNAcT. Blixt, O.;Brown, J.;Schur, M.;Wakarchuk, W. and Paulson, J. C., J. Org. Chem. 2001, 66, 2442-2448; Blixt, O.;van Die, I.;Norberg, T. and van den Eijnden, D. H., Glycobiol. 1999, 9, 1061-1071. β4GalT-GalE is a fusion protein constructed from β4GalT and the uridine-5'-diphospho-galactose-4'-epimerase (GalE) for in situ conversion of inexpensive UDP-glucose to UDP-galactose providing a cost efficient strategy.
Both enzymes, β4GalT-GalE and β3GlcNAcT, were over expressed in E. coli AD202 in a large-scale fermentor (100 L). Bacteria were cultured in 2YT medium and induced with iso-propyl-thiogalactopyranoside (IPTG) to ultimately produce 8-10 g of bacterial cell paste / L cell media. The enzymes were then released from the cells by a microfluidizer and were solubilized in Tris buffer (25 mM, pH 7.5) containing manganese chloride (10 mM) and Triton X (0.25%) to reach enzymatic activities of about 50 U/L and 115 U/L of cell culture β4GalT-GalE and β3GlcNAcT, respectively.
The structures of these disaccharides are provided below. [drawing 23] [drawing 24] [drawing 25] [drawing 26]
Adding the hydrophobic para-nitrophenyl ring as an aglycon to the reducing end of the acceptors enhanced the activity of the enzyme up to 10 fold (compare 4 with 5 and 6 with 7). The increase in the enzyme activity by adding a hydrophobic aglycon to the acceptor sugar, though to the lesser extent, has also been shown for β4GalT (compare 12 with 13,14). The relaxed substrate specificity of these enzymes makes them very useful for preparative synthesis of various carbohydrate structures, including poly-N-acetyllactosamines. Table 4. Selected β4GalT-GalE and β3GlcNAcT Specificity Data

2G12 antibody [1] = assay: Carbohydrate microarray analysis, microtiter-based, Scatchard plot (Kd); assay type: binding, human; details: for Kd: oligomannose immobilized as azide derivative on cleavable linker in microtiter plate, fluorescent secondary antibody
Procedure: Carbohydrate microarray analysis. Ninety-six well NHS-coated microtiter plates (NoAb Biodiscoveries) were treated with 200 µL of a 1 mM methanolic solution of the amino-functionalized disulfide and alkyne containing linker (scheme V) containing 5 % diisopropylethylamine (DIEA) and incubated overnight at 4°C. The microtiter plate was then washed with 2 x 200 µL methanol and 2 x 200 µL water. Next, 200 µL solutions of azido-functionalized oligomannose derivatives 21-25 at varying concentrations from 0 to 500 µM in 5 % DIEA / methanol were introduced. A sprinkle of copper (I) iodide was added and the contents were allowed to react overnight at 4°C. The next day, the contents were removed and the plates were washed with 2 x 200 µL methanol and 2 x 200 µL water. The plates were then blocked with 0.1 % Tween20 solution in HEPES buffer pH 7.5 at 4 °C for 1 hour and then washed with 3 x 200 µL HEPES buffer. Next, 200 µL of a 1 µg/mL solution of 2G12 antibody in 0.1 % Tween20 / PBS buffer was added to the wells for a 1 hour incubation at 4 °C and then washed with 2 x 200 µL PBS buffer. At this point, 200 µL of FITC-tagged goat anti-human IgG antibody (10 µg/mL in PBS, Cal Biochem) was added for 1 hour at 4 °C, and the wells were then washed with 2 x 200 µL PBS buffer. Detection of the FITC-tagged secondary antibody was performed in 200 µL water using a fluorescence plate reader. The resulting data yielded the oligomannose-2G12 binding isotherms and Scatchard plot analysis was implemented in the determination of dissociation constants. Adams et al. (2004) Chem. Biol. 11: 875-81.
Overall, many of the oligomannose derivatives can compete for binding of Man9GlcNAc2, and, therefore, may serve as building blocks for potential immunogens to elicit 2G12-like antibodies. Carbohydrate Microarray Analysis. Previous studies by the inventors using covalent microtiter plates with a panel of carbohydrate epitopes for interaction with 2G12 involved converting the amine-containing oligomannoses 4, 5, 7, 8 and 9 to the corresponding azide derivatives 21, 22, 23, 24 and 25. These derivatives were then covalently attached to a microplate-immobilized cleavable linker via the Cu (I)-catalyzed 1,3-dipolar cycloaddition reaction (FIG. 11B). Kd values for the interaction of 2G12 with oligomannoses 4, 5, 7, 8, 9 (Table 9) were determined using a microtiter-based assay with detection via a fluorescent secondary antibody (see Bryan et al.(2004) J. Am. Chem. Soc. 126, 8640-41). Table 9: The Kd values of oligomannoses 1 and 4, 5, 7, 8, 9 binding to 2G12, as determined by carbohydrate microarray analysis.

2G12 anti-HIV antibody = assay: 2G12 binding to glycan array printed on glass slide; parameters: species or system human; details: for Rel. spec. (relative binding activity of 2G12): glass-slide glycan array, 2G12 pre-complexed with secondary anti-IgG-FITC; for binding of 2G12 antibodies (in words): glycan array, initial experiments
Procedure: Construction of a glycan array printed on a glass slide: The library of carbohydrate structures was obtained through chemical and chemo-enzymatic synthesis as described above, as well as natural sources. This compound library contained a N-hydroxy succinimide (NHS)-reactive primary amino group, which was printed on a commercial NHS-activated glass surface (Accelr8 Technology Corporation, Denver, CO) using a microarray gene printer (TSRI).
Each glycan type was printed (≈0.5nL/spot) at various concentrations (10-100 µM) and each concentration in a replicate of six. Slides were further incubated with ethanolamine buffer to deactivate remaining NHS functional groups.
The 2G12 antibody was pre-complexed (for 10 min) with secondary human anti-IgG-FITC (2:1, 20µg/mL) prior to application to the glycan array. After incubation with the 2G12 antibodies, the array was washed by dipping the slide in buffer and water.

2G12 antibody [2] = assay: 2G12 binding study on cleavable linker glycan array in microtiter plates (Kd); parameters: species or system human; details: binding to 2G12 antibody
Procedure: Cleavable Linker Glycan Array in Microtiter Plates: Further experiments were performed using glycans immobilized within microtiter wells with the cleavable triazole linkers described in Example 7 as shown in FIG. 11.
2G12 Binding: After washing with QH2O, wells were blocked with 10 mM HEPES buffer, pH 7.5/150 mM NaCl buffer (200 µL) containing 0.1% Tween-20 over 1 h at 4 °C. The buffer was then removed and 2G12 (17 µg/mL PBS buffer; 200 µL) was incubated in the well over 1 h at 4°C. Wells were then washed with PBS buffer (3×; 200 µL) and fluorescein-conjugated Goat Anti-Human IgG antibody (14 µg/mL PBS buffer; 200 µL) was incubated in the well over 1 h in the dark at 4 °C. Wells were then washed with PBS buffer (3×; 200 µL) and fluorescence was measured with an excitation wavelength of 485 nm and emission wavelength of 535 nm.
Further studies were performed using a cleavable linker array to clarify the types of mannose-containing glycans bound by the 2G12 anti-HIV antibodies. […] The results of a binding study using increasing amounts of labeled Manα1,2Manα1,3Manα1,2 Manα1,6Man glycan with a constant amount of 2G12 antibody are shown in FIG. 16.

Question: `OC[C@H]1O[C@@H](O[C@H]2[C@H](O)[C@@H](O)[C@H](O)O[C@@H]2CO)[C@H](O)[C@@H](O)[C@H]1O` [Acceptor 4, Galβ(1-4)Glc, reference compound] was tested. Which “Relative enzyme activity (%) β(1-3)GlcNAcT-activity” value (β3GlcNAcT) did it give?
Answer: 100%

Question: Which results are given for `OCC1O[C@@H](O)C(O)[C@@H](O)[C@@H]1O[C@@H]1OC(CO)[C@H](O)[C@H](O)C1O` (stereo partly shown) [Compound 4]?
Answer: Relative enzyme activity (%) β(1-3)GlcNAcT-activity (β3GlcNAcT): 100%; Kd (2G12 antibody [1]): 100 nM

Question: With `O=[N+]([O-])c1ccc(O[C@@H]2OC(CO)[C@@H](O[C@@H]3OC(CO)[C@H](O)[C@H](O)C3O)[C@H](O)C2O)cc1` (stereo partly shown) [Compound 5] as the molecule, how does the “Relative enzyme activity (%) β(1-3)GlcNAcT-activity” value (β3GlcNAcT) read?
Answer: 945%

Question: And the Kd (2G12 antibody [1])?
Answer: 100 nM

Question: For `CC(=O)N[C@H]1C(O)O[C@H](CO)[C@@H](O[C@@H]2O[C@H](CO)[C@H](O)[C@H](O)[C@H]2O)[C@@H]1O` (stereo partly shown) [Compound 6], which “Relative enzyme activity (%) β(1-3)GlcNAcT-activity” value (β3GlcNAcT) is on record?
Answer: 7%

Question: How did the “Rel. spec. (relative binding activity of 2G12)” value (2G12 anti-HIV antibody) turn out when `NCCCO[C@H]1O[C@H](CO)[C@@H](O)[C@H](O[C@H]2O[C@H](CO)[C@@H](O)[C@H](O)[C@@H]2O[C@H]2O[C@H](CO)[C@@H](O)[C@H](O)[C@@H]2O[C@H]2O[C@H](CO)[C@@H](O)[C@H](O)[C@@H]2O)[C@@H]1O` [Glycan 135] was run?
Answer: +++ (+++ >25,000)

Question: Which “Rel. spec. (relative binding activity of 2G12)” value (2G12 anti-HIV antibody) does the source give for `NCCCO[C@H]1O[C@H](CO[C@H]2O[C@H](CO)[C@@H](O)[C@H](O)[C@@H]2O[C@H]2O[C@H](CO)[C@@H](O)[C@H](O)[C@@H]2O)[C@@H](O)[C@H](O[C@H]2O[C@H](CO)[C@@H](O)[C@H](O)[C@@H]2O[C@H]2O[C@H](CO)[C@@H](O)[C@H](O)[C@@H]2O)[C@@H]1O` [Glycan 136] here?
Answer: +++ (+++ >25,000)

Question: For `NCCCO[C@H]1O[C@H](CO[C@H]2O[C@H](CO)[C@@H](O)[C@H](O)[C@@H]2O[C@H]2O[C@H](CO)[C@@H](O)[C@H](O)[C@@H]2O[C@H]2O[C@H](CO)[C@@H](O)[C@H](O)[C@@H]2O)[C@@H](O)[C@H](O[C@H]2O[C@H](CO)[C@@H](O)[C@H](O)[C@@H]2O)[C@@H]1O` [Glycan 138], which “Rel. spec. (relative binding activity of 2G12)” value (2G12 anti-HIV antibody) is on record?
Answer: +++ (+++ >25,000)

Question: How did the “affinity for 2G12 antibodies (in words)” value (2G12 antibody [1]; microtiter plate array) turn out when `NCCCCCO[C@H]1O[C@H](CO)[C@@H](O)[C@H](O[C@H]2O[C@H](CO)[C@@H](O)[C@H](O)[C@@H]2O[C@H]2O[C@H](CO)[C@@H](O)[C@H](O)[C@@H]2O[C@H]2O[C@H](CO)[C@@H](O)[C@H](O)[C@@H]2O)[C@@H]1O` [Oligomannose 4] was run?
Answer: greatest affinity

Question: How did the “Relative enzyme activity (%) β(1-3)GlcNAcT-activity” value (β3GlcNAcT) turn out when “Galβ(1-4)GlcNAc [Acceptor 6, reference compound]” was run?
Answer: 7-8%

Question: Which “binding of 2G12 antibodies (in words)” value (2G12 anti-HIV antibody) does the source give for Man-8#aa Man8-aminoacid [Glycan 144] here?
Answer: Binding was observed

Question: Man-9#aa Man9-aminoacid [Glycan 145] was tested. Which “binding of 2G12 antibodies (in words)” value (2G12 anti-HIV antibody) did it give?
Answer: smaller level of binding

Question: With “Manα1,2Manα1,2Manα1,3(Manα1,2Man1,2Man1.6)Man” as the molecule, how does the Kd (2G12 antibody [2]) read?
Answer: 700 nM

Question: For Manα1,2Manα1,3Manα1,2 Manα1,6Man, which Kd (2G12 antibody [2]) is on record?
Answer: 100 nM

Question: Which Kd (2G12 antibody [2]) does the source give for “Manα 1,2Manα1 ,2Manα1 1,3(Manα1,2Man1,3 (Manα1.2Manα1 ,2Manα 1.6) )Man” here?
Answer: 1000 nM

From patent publication EP1862466A2, “Arrays with cleavable linkers” (THE SCRIPPS RESEARCH INSTITUTE, priority 2004, dated 2006)
